Test results from patent publication US10882860B2, “Treatment of osteoarthritis” (Samumed, LLC, priority 2015, dated 2021).
Where two headings read alike, the source gives them in different places.

Legend:
[1] = Rat pharmacokinetics after IA injection (plasma, knee joint); assay type: in vivo, Sprague Dawley rats; details: for concentration at 30 day / concentration at 90 day / concentration at 180 day: Sprague Dawley; for concentration at 30 day / concentration at 90 day / concentration at 180 day / Formula (I) concentration, Bone / Formula (I) concentration, Cartilage / Formula (I) concentration, Plasma: rats, single IA; for Formula (I) concentration, Plasma: QL = 5 ng/mL
Procedure: In rats and dogs, the pharmacokinetic profile, safety profile, tissue distribution and cartilage regeneration following a single intra-articular (IA) injection of the compound of Formula (I) in the plasma and the knee joint (cartilage and bone) was determined. The compound of Formula (I) (Form 1) was formulated as a suspension composition in 0.5% CMC/0.05% Polysorbate 80 in PBS.
The pharmacokinetics of the compound of Formula (I) in rats was studied. Three Sprague Dawley rats were each injected with a single intra-articular (IA) injection (one IA injection per knee) of a suspension composition of the compound of Formula (I) (Form 1) at 0.3, 1, 3 and 9 μg/knee. Plasma was collected beginning at 15 minutes post-dose on Day 1 and the knee joint was collected at Days 30, 90, and 180 post-IA administration. The bone and cartilage tissues from the knee joint were segregated and concentrations analyzed. The compound was retained in the knee joint above the target concentration level (˜30 nM, the intended clinical therapeutic dose) for greater than 180 days and was undetectable in the plasma at all time points.

[2] = system: subjects with moderately to severely symptomatic knee OA; test: Initial clinical study (first cohort, single IA injection); assay type: in vivo, human; parameters: Change in cartilage thickness: unit not given here
Procedure: Twenty-one subjects were enrolled in the first cohort of a clinical trial for the treatment of osteoarthritis. All subjects completed a minimum of 12 weeks of follow-up after treatment. This study was a first-in-human, multicenter, placebo-controlled, single-dose, dose-escalation safety study in subjects suffering from moderately to severely symptomatic knee OA. Subjects were treated with a single ultrasound-guided intra-articular injection of a suspension of a non-stoichiometric hydrate of Form I having between 1% and about 20% by weight water or placebo.
A single-use injectable composition containing the compound of Formula (I) suspended in a 0.5% sodium carboxymethylcellulose and 0.05% polysorbate 80 in 10 mM phosphate buffered saline solution, pH 7.4, was prepared. For this study, a dosage of 0.03-0.230 mg of the compound of Formula (I) was administered per 2 mL injection.
Subjects were evaluated using the following primary and secondary assessments:
1. Evaluation of the safety and tolerability of the therapeutic composition administered by intra-articular injection into the target knee joint of moderately to severely symptomatic osteoarthritis (OA) subjects. This included:
a) monitoring for treatment-emergent adverse events (AEs);
b) assessing bone loss by measuring bone biomarkers (cartilage oligomeric matrix protein [COMP], N-terminal propeptides of procollagen type I [PINP], and β-C-terminal telopeptide [β-CTX]) at Weeks 4 and 12 by computed tomography (CT) of both knee joints and at Week 12 after study medication injection compared to baseline; and
c) assessing bone marrow edema by magnetic resonance imaging (MRI) at Week 12 compared to baseline.
2. Assessment of the pharmacokinetic (PK) behavior of the compound of Formula (I) under the conditions of this study at Days 1, 2, 4, and 12.
Estimation of clinical responses to treatment with the therapeutic composition, including:
a) change from baseline in pain visual analog scale (VAS) score assessed at Weeks 1, 2, 4, 8, and 12;
b) change from baseline in the Western Ontario and McMaster Universities Arthritis Index (WOMAC) assessed at Weeks 1, 2, 4, 8, and 12;
c) change from baseline OA pain as assessed by the WOMAC pain subscale at Weeks 1, 2, 4, 8, and 12;
d) change from baseline OA as assessed by the physician global assessment of disease activity at Weeks 1, 2, 4, 8, and 12;
e) change from baseline in total cartilage volume and thickness in the compartments of the target knee joint as documented by Mill at Week 12;
f) changes from baseline in anabolic or catabolic biomarkers indicative of cartilage synthesis or degradation (cartilage oligomeric matrix protein [COMP], N-terminal propeptides of procollagen type I [PINP], and β-C-terminal telopeptide [(3-CTX]) at Weeks 4 and 12;
g) change from baseline in plasma levels of cytokines related to inflammation (interleukin [IL] 1b, IL6, IL8, tumor necrosis factor (TNF), and interferon-alpha [IFNα]) at Weeks 4 and 12; and
h) change from baseline in bone marrow edema as documented by Mill scan of the target knee at baseline and at Week 12.

[3] = subject Treatment 1, Week 12 vs baseline
[4] = subject Treatment 2, Week 12 vs baseline
[5] = subject Treatment 3, Week 12 vs baseline
[6] = subject Treatment 4, Week 12 vs baseline

## CC(C)CC(=O)Nc1cncc(-c2ccc3[nH]nc(-c4nc5c(-c6cccc(F)c6)cncc5[nH]4)c3c2)c1 [compound of Formula (I)]
[1]; rat, bone, other: intra-articular injection, 1 μg/knee, Day 30, read-out: Formula (I) concentration, Bone
  concentration at 30 day: 196 ng/g
[1]; rat, bone, other: intra-articular injection, 1 μg/knee, Day 90, read-out: Formula (I) concentration, Bone
  concentration at 90 day: 44.4 ng/g
[1]; rat, bone, other: intra-articular injection, 1 μg/knee, Day 180, read-out: Formula (I) concentration, Bone
  concentration at 180 day: 46.4 ng/g
[1]; rat, bone, other: intra-articular injection, 3 μg/knee, Day 30, read-out: Formula (I) concentration, Bone
  concentration at 30 day: 738 ng/g
[1]; rat, bone, other: intra-articular injection, 3 μg/knee, Day 90, read-out: Formula (I) concentration, Bone
  concentration at 90 day: 166 ng/g
[1]; rat, bone, other: intra-articular injection, 3 μg/knee, Day 180, read-out: Formula (I) concentration, Bone
  concentration at 180 day: 15 ng/g
[1]; rat, bone, other: intra-articular injection, 9 μg/knee, Day 30, read-out: Formula (I) concentration, Bone
  concentration at 30 day: 3290 ng/g
[1]; rat, bone, other: intra-articular injection, 9 μg/knee, Day 180, read-out: Formula (I) concentration, Bone
  concentration at 180 day: 67 ng/g
[1]; rat, bone, other: intra-articular, 0.3 μg/knee, Day 30, read-out: Formula (I) concentration, Bone
  concentration at 30 day: 25.8 ng/g
[1]; rat, bone, other: intra-articular, 0.3 μg/knee, Day 90, read-out: Formula (I) concentration, Bone
  concentration at 90 day: 6.56 ng/g
[1]; rat, bone, other: intra-articular, 0.3 μg/knee, Day 180, read-out: Formula (I) concentration, Bone
  concentration at 180 day: 19 ng/g
[1]; rat, cartilage, other: intra-articular injection, 0.3 μg/knee, Day 30, read-out: Formula (I) concentration, Cartilage
  concentration at 30 day: 263 ng/g
[1]; rat, cartilage, other: intra-articular injection, 0.3 μg/knee, Day 90, read-out: Formula (I) concentration, Cartilage
  concentration at 90 day: 78 ng/g
[1]; rat, cartilage, other: intra-articular injection, 0.3 μg/knee, Day 180, read-out: Formula (I) concentration, Cartilage
  concentration at 180 day: 69.6 ng/g
[1]; rat, cartilage, other: intra-articular injection, 3 μg/knee, Day 30, read-out: Formula (I) concentration, Cartilage
  concentration at 30 day: 2570 ng/g
[1]; rat, cartilage, other: intra-articular injection, 3 μg/knee, Day 90, read-out: Formula (I) concentration, Cartilage
  concentration at 90 day: 645 ng/g
[1]; rat, cartilage, other: intra-articular injection, 3 μg/knee, Day 180, read-out: Formula (I) concentration, Cartilage
  concentration at 180 day: 717 ng/g
[1]; rat, cartilage, other: intra-articular injection, 9 μg/knee, Day 30, read-out: Formula (I) concentration, Cartilage
  concentration at 30 day: 3560 ng/g
[1]; rat, cartilage, other: intra-articular injection, 9 μg/knee, Day 180, read-out: Formula (I) concentration, Cartilage
  concentration at 180 day: 224 ng/g
[1]; rat, cartilage, other: intra-articular, 1 μg/knee, Day 30, read-out: Formula (I) concentration, Cartilage
  concentration at 30 day: 39 ng/g
[1]; rat, cartilage, other: intra-articular, 1 μg/knee, Day 90, read-out: Formula (I) concentration, Cartilage
  concentration at 90 day: 243 ng/g
[1]; rat, cartilage, other: intra-articular, 1 μg/knee, Day 180, read-out: Formula (I) concentration, Cartilage
  concentration at 180 day: 201 ng/g
[1]; rat, all time points
  plasma level: undetectable
[1]; rat, single IA 0.3, 1, 3 and 9 μg/knee
  time retained in the knee joint above the target concentration level (˜30 nM): greater than 180 days
[1]; 0.3 μg/knee, Day 30
  Formula (I) concentration, Bone: [51 nM]
  Formula (I) concentration, Cartilage: [521 nM]
  Formula (I) concentration, Plasma: BQL
[1]; 0.3 μg/knee, Day 90
  Formula (I) concentration, Bone: [13 nM]
  Formula (I) concentration, Cartilage: [154 nM]
  Formula (I) concentration, Plasma: BQL
[1]; 0.3 μg/knee, Day 180
  Formula (I) concentration, Bone: [38 nM]
  Formula (I) concentration, Cartilage: [138 nM]
  Formula (I) concentration, Plasma: BQL
[1]; 1 μg/knee, Day 30
  Formula (I) concentration, Bone: [388 nM]
  Formula (I) concentration, Cartilage: [774 nM]
  Formula (I) concentration, Plasma: BQL
[1]; 1 μg/knee, Day 90
  Formula (I) concentration, Bone: [88 nM]
  Formula (I) concentration, Cartilage: [481 nM]
  Formula (I) concentration, Plasma: BQL
[1]; 1 μg/knee, Day 180
  Formula (I) concentration, Bone: [92 nM]
  Formula (I) concentration, Cartilage: [398 nM]
  Formula (I) concentration, Plasma: BQL
[1]; 3 μg/knee, Day 30
  Formula (I) concentration, Bone: [1461 nM]
  Formula (I) concentration, Cartilage: [5097 nM]
  Formula (I) concentration, Plasma: BQL
[1]; 3 μg/knee, Day 90
  Formula (I) concentration, Bone: [329 nM]
  Formula (I) concentration, Cartilage: [1277 nM]
  Formula (I) concentration, Plasma: BQL
[1]; 3 μg/knee, Day 180
  Formula (I) concentration, Bone: [313 nM]
  Formula (I) concentration, Cartilage: [1420 nM]
  Formula (I) concentration, Plasma: BQL
[1]; 9 μg/knee, Day 30
  Formula (I) concentration, Bone: [6520 nM]
  Formula (I) concentration, Cartilage: [7055 nM]
  Formula (I) concentration, Plasma: BQL
[1]; 9 μg/knee, Day 90
  Formula (I) concentration, Plasma: BQL
[1]; 9 μg/knee, Day 180
  Formula (I) concentration, Bone: [1335 nM]
  Formula (I) concentration, Cartilage: [4437 nM]
  Formula (I) concentration, Plasma: BQL
[2]; [3]
  Change in WOMAC score: −56
  Change in cartilage thickness: 1.2
[2]; subject Treatment 1, baseline 14.01
  Week 12 cartilage thickness (mm): 15.21 mm
[2]; subject Treatment 1, baseline 56
  Week 12 WOMAC score: 0
[2]; [4]
  Change in WOMAC score: −30
  Change in cartilage thickness: 1.2
[2]; subject Treatment 2, baseline 12.12
  Week 12 cartilage thickness (mm): 13.32 mm
[2]; subject Treatment 2, baseline 51
  Week 12 WOMAC score: 21
[2]; [5]
  Change in WOMAC score: −27
  Change in cartilage thickness: 1.3
[2]; subject Treatment 3, baseline 13.22
  Week 12 cartilage thickness (mm): 14.52 mm
[2]; subject Treatment 3, baseline 59
  Week 12 WOMAC score: 32
[2]; [6]
  Change in WOMAC score: −38
  Change in cartilage thickness: 1.44
[2]; subject Treatment 4, baseline 9.89
  Week 12 cartilage thickness (mm): 11.33 mm
[2]; subject Treatment 4, baseline 61
  Week 12 WOMAC score: 23
